# Experimental data from patent US11413337B2, “Peptide conjugated particles for the treatment of inflammation” (Northwestern University, priority 2012, dated 2022).
# Where no end group is shown, it is not given here.
# B1: OVA-PLG: OVA with PLG particles: coupled in Example 3, encapsulated in Examples 12 and 13, OVA323 peptide control in Example 16 (conjugate, UniProt P01012 2-386, looked up)
# Ovalbumin: GSIGAASMEFCFDVFKELKVHHANENIFYCPIAIMSALAMVYLGAKDSTRTQINKVVRFDKLPGFGDSIEAQCGTSVNVHSSLRDILNQITKPNDVYSFSLASRLYAEERYPILPEYLQCVKELYRGGLEPINFQTAADQARELINSWVESQTNGIIRNVLQPSSVDSQTAMVLVNAIVFKGLWEKAFKDEDTQAMPFRVTEQESKPVQMMYQIGLFRVASMASEKMKILELPFASGTMSMLVLLPDEVSGLEQLESIINFEKLTEWTSSNVMEERKIKVYLPRMKMEEKYNLTSVLMAMGITDVFSSSANLSGISSAESLKISQAVHAAHAEINEAGREVVGSAEAGVDAASVSEEFRADHPFLFCIKHIATNAVLFFGRCVSP
# modifications: coupled to or encapsulated in PLG particles
# B2: soluble OVA: soluble ovalbumin given intravenously (protein, UniProt P01012 2-386, looked up)
# Ovalbumin: B1 Ovalbumin
# Legend:
# [1] = tested on: Relapsing Experimental Autoimmune Encephalitis (R-EAE); test: prophylactic tolerance in PLP139-151/CFA-induced R-EAE, particles given day −7; assay type: in vivo, mouse; conditions: for prevention of disease induction: treated day −7 relative to immunization; for clinical score: treated day −7
# Th1 and Th17 responses = test: induction of antigen-specific Th1 and Th17 responses, draining lymph node cells; assay type: in vivo, mouse; conditions: BALB/c mice, iv Day −7, measured Day 10
# Experimental: To determine whether administration of antigen-coupled particles inhibit induction of T-helper cells, either MOG35-55-PLG or OVA323-339-PLG particles were administered intravenously to BALB/c mice at Day −7. On Day 0, OVA323-339-PLG particles and Complete Freund's Adjuvant (CFA) were administered subcutaneously to the mice. The animals were re-stimulated with either MOG35-55-PLG or OVA323-339-PLG particles on Day 10 and the draining lymph node cells were isolated. The CPM and levels of IL-17, GM-CSF, IFN-γ, IL-10, and IL-4 were measured at Day 10.
# cervical spinal cord = test: spinal cord histology and in vivo imaging in R-EAE; parameters: species or system mouse; conditions: for staining for CD45, CD4, and CD11b: spinal cord
# Experimental: An additional therapeutic tolerance strategy was performed by delivering PLP139-151-PLG or OVA323-339 PLG to mice. […] Mice were treated with PLP-PLG or OVA323-339-PLG and the tissue was retrieved at day 40. The cervical spinal cord was isolated and sectioned to investigate the immune response within the CNS, which underlies the pathology of R-EAE and multiple sclerosis.
# The clinical scores and percent incidence of EAE were determined (FIG. 10B) and the spinal cords observed via in vivo imaging (FIGS. 10A and 11). […] The bar graphs give the numerical numbers to the signal strength shown in the brain and SC scans.
# [2] = tested on: allergic airway inflammation; test: prophylactic allergic airway inflammation, OVA/Alum; assay type: in vivo, mouse
# Experimental: To test the prophylactic effect of OVA encapsulated in PLG particles on airway inflammation, mice were treated intravenously with OVA-PLG at day −7. On day 0, the mice received intraperitoneal injections of OVA/Alum at a dose of 10 μg/mouse. On day 7, the mice were again treated intravenously with OVA-PLG and received another 10 μg/mouse ip injection of OVA/Alum on day 14. Between days 28 and 30, the mice were treated three times with aerosolized OVA.
# mediastinal lymph nodes = test: OVA-specific in vitro recall responses from mediastinal lymph nodes; assay type: cell-based, mouse
# Excerpt: Moreover treatment with OVA-PLG decreases the release of cytokines after restimulation with OVA.
# [3] = tested on: allergic airway inflammation; test: therapeutic allergic airway inflammation, OVA/Alum; assay type: in vivo, mouse
# Experimental: To test the therapeutic effect of OVA encapsulated in PLG particles on airway inflammation, mice were treated intraperitoneally with OVA/Alum at a dose of 10 μg/mouse on day 0 and day 14. The mice were intravenously administered with OVA-PLG on days 28, and 42. Between days 56-58, the mice were treated three times with aerosolized OVA.
# The animals were treated as described above except that on days 28 and 42, the mice were treated with either OVA encapsulated in PLG particles, or OVA coupled to PLG particles.
# CD45.1 donor cells = test: engraftment of male CD45.1 bone marrow cells in female CD45.2 mice; assay type: in vivo, mouse
# Excerpt: Female CD45.2 mice were tolerized with either OVA-PLG or the control peptide Dby-PLG (the major H-Y antigen expressed by Male C57BL/6 mice) on day −7. On day −1, the mice were irradiated with 200 rads and were then transplanted with 1×10^6, 5×10^6, or 1×10^7 bone marrow cells from male CD45.1 mice on day 0. The recipient mice were then tolerized with either OVA-PLG, Dby-SP, or Dby-PLG on day 1 and the blood harvested for FACS analysis of chimerism.
# [4] = tested on: Relapsing Experimental Autoimmune Encephalitis; test: treatment of active R-EAE at day 10, route of administration; assay type: in vivo, mouse
# Experimental: Experiments were conducted during development of embodiments of the present invention to investigate the ability of the PLG-PLP139-151 particles to treat disease rather than prevent disease, and to determine whether the route of administration affected the development of disease. Mice were immunized at day 0 with PLP139-151 and an adjuvant. Mice normally have maximal clinical scores at day 12-14. In this model, the mice were treated at day 10 with the PLG-PLP139-151 particles or with control PLG-OVA323-339 particles either via intravenous (iv) administration, intraperitoneal (ip) administration, subcutaneous (sc) administration, or orally. […] This is in contrast to animals treated with PLP139-151 polystyrene particles, whereby >70% of animals where observed to die from anaphylaxis.
# adoptive EAE = test: adoptive transfer EAE treated with antigen-coupled PLG particles; assay type: in vivo, mouse; conditions: for mean clinical score: treated at day 2
# Experimental: Experiments were conducted during development of embodiments of the present invention to investigate a second model of active disease termed adoptive transfer. Rather than immunizing the animals with the peptide, the lymphocytes from the spleen of mice with active disease were transferred to a recipient, who would subsequently develop disease. Experiments were conducted during development of embodiments of the present invention to characterize the ability of the PLG nanoparticles to deactivate the adoptively transferred activated effector cells.
# Therapeutic tolerance induced by PLP139-151-PLG particles was compared in active and adoptive EAE. Adoptive EAE was induced in six to eight-week old female SJL/J mice by adoptive transfer of 2.5×10^6 PLP139-151-activated blasts. Mice were injected iv with PLP139-151 (squares) or OVA323-339 (circles) peptide coupled to 500 nm PLG nanoparticles 2 days (FIG. 14A) or 14 days (FIG. 14C) following disease induction. Clinical disease scores were compared to those following treatment with antigen-coupled splenocytes (FIG. 14A). Brain and spinal cord were collected from PLP139-151- or OVA323-339-tolerized mice for histological analysis on day 42. Sections from mice from panel A were stained for PLP protein and CD45 (FIG. 14B). Spinal cord sections from mice from panel C were stained with Luxol Fast Blue (FIG. 14D). Areas of demyelination and cellular infiltration are indicated by arrows.
# SJL/J mice were injected i.v. with 500 nm PLG nanoparticles coupled with PLP139-151 (squares) or OVA323-339 (circles) 2 days following EAE induction by adoptive transfer. At the peak of disease (day 14) brains and spinal cords were removed and the number of lymphocytes (FIG. 16B), APCs (FIG. 16C), microglia (FIG. 16D), peripheral dendritic cells (FIG. 16E), myeloid dendritic cells (FIG. 16F) and macrophages (FIG. 16G) were enumerated by flow cytometry. The gating strategy for these populations is depicted in (FIG. 16A). CNS cell preparations were stimulated with PMA and ionomycin for 5 h prior to intracellular staining for IL-17A and IFN-γ (FIG. 16H).
# SJL/J mice with EAE = test: iv injection during EAE remission (day 21), anaphylaxis; assay type: in vivo, mouse; conditions: administration during remission, d21
# Experimental: EAE was induced in six to eight week old female SJL/J mice by subcutaneous injection of PLP139-151 in CFA, and development of clinical disease was monitored and recorded (FIG. 5B). On d21 relative to disease induction, mice were given iv injections of soluble PLP139-151 (clear squares), soluble OVA323-339 (clear circles), or the same peptides coupled to PLG nanoparticles (solids). Temperature of animals was monitored and recorded every 10 minutes for 1 hour following injection (FIG. 5A).
# [5] = tested on: OVA/Alum pre-sensitized mice; test: anaphylaxis-induced temperature drop in OVA/Alum pre-sensitized animals; assay type: in vivo, mouse; conditions: iv on day 28; within 1 hour of delivering
# Experimental: Due to the presence of active disease, anaphylaxis to the antigens is a concern, which could result in immediate mortality, and has been described with polystyrene bound particles. Anaphylaxis is associated with a significant drop in body temperature. To test whether intravenous administration of OVA-PLG induces an anaphylaxis-induced temperature drop in pre-sensitized animals, mice were immunized at day 0 with 10 μg OVA/Alum via intraperitoneal injection. On day 14, the mice were again immunized with 10 μg OVA/Alum via intraperitoneal injection, and then tolerized with OVA-PLG administered intravenously on day 21. On day 28, the mice were then tolerized with either OVA-PLG particles or OVA via intravenous administration.
molecule,measurement,setting,value
"OVA323-339-PLG: control peptide OVA323-339 coupled to PLG particles (KISQAVHAAHAEINEAG; also: coupled to PLG particles; UniProt P01012 323-339, looked up, fragment)",prevention of disease induction,[1],did not prevent disease induction
same,Th1 and Th17 responses,Th1 and Th17 responses,inhibited the Th1 and Th17 responses
same,"staining for CD45, CD4, and CD11b",cervical spinal cord; day 40,positive staining
"OVA-PLG: OVA with PLG particles: coupled in Example 3, encapsulated in Examples 12 and 13, OVA323 peptide control in Example 16",eosinophils in the lung,[2],reduced
same,levels of serum OVA IgE,[2],reduced
same,"secretion of IL-4, IL-5, IL-13 and IL-10",[2]; iv day −7 and day 7,decreased
same,lymph node proliferation,mediastinal lymph nodes; after restimulation with 25 μg OVA,decreased
same,"levels of IL-4, IL-5, IL-13, and IL-10",mediastinal lymph nodes; after restimulation with OVA,decreased
same,eosinophils in the lung,[3],reduced
same,levels of serum OVA IgE,[3],reduced
same,"secretion of IL-4, IL-5, IL-13 and IL-10",[3]; iv days 28 and 42,decreased
same,"engraftment, one mouse","CD45.1 donor cells; Day −7, Day +1 group, FIG. 28",12%
same,"engraftment (percent of donor CD45.1 cells), individual mice","CD45.1 donor cells; tolerized day 1, FIG. 27",~10%
"PLP139-151 polystyrene particles: PLP139-151 bound to polystyrene particles (CHCLGKWLGHPDK; cysteine pairing not given here; also: bound to polystyrene particles; UniProt P60202 139-151, looked up, fragment) [reference compound]",animals observed to die from anaphylaxis,"[4]; mouse, in vivo",> 70%
"PLP139-151-PLG: immunodominant proteolipid protein PLP139-151 epitope coupled to 500 nm PLG nanoparticles (CHCLGKWLGHPDK; cysteine pairing not given here; also: coupled to 500 nm PLG nanoparticles; UniProt P60202 139-151, looked up, fragment)","down-regulating induction of R-EAE, by type of particle","[1]; day −7, FIGS. 3A and 3B",more effective in down-regulating induction of R-EAE
same,delayed-type hypersensitivity (DTH) responses,[1]; to immunizing PLP139-151 epitope,lack of delayed-type hypersensitivity (DTH) responses
same,clinical score,[1]; all time points except days 20 to 30,0
same,clinical score,[1]; between days 20 and 30,under 1
same,prevention of disease induction,[1],specifically prevented EAE development
same,disease (mean clinical score),"adoptive EAE; adoptive EAE, iv 2 days following disease induction (FIG. 15B)",reduced disease
same,tolerance induction in adoptive EAE,adoptive EAE; iv 2 or 14 days following disease induction,tolerance is induced
same,infiltration of central nervous system immune cells,"adoptive EAE; iv day 2, peak of disease (day 14), flow cytometry",drastically reduced
same,mean clinical score,adoptive EAE; all but two time points through day 40,0
same,mean clinical score,adoptive EAE; the other two time points,0.25
same,disease (mean clinical score),"[4]; active EAE, iv 10 days following disease induction (FIG. 15A)",reduced disease
same,development of disease,[4]; administered intravenously,did not develop disease
same,mean clinical scores,"[4]; administered intravenously, at most time points",0
same,efficiency of tolerance by route of administration,"[4]; iv, ip, sc or oral, FIG. 7",most efficient when the PLG-PLP139-151 particles are administered either intravenously or intraperitoneally
same,anaphylaxis-associated mortality,SJL/J mice with EAE,does not result in any anaphylaxis-associated mortality
same,immune cell infiltration within the spinal cord,cervical spinal cord; day 40,reduction in immune cell infiltration
same,cervical spinal cord inflammation and demyelination,"cervical spinal cord; histological analysis, tissue retrieved at day 40",inhibits cervical spinal cord inflammation and demyelination
same,blood brain barrier (BBB) disruption and macrophage activation in the spinal cord,"cervical spinal cord; in vivo imaging, Angiosense and prosense",inhibits blood brain barrier (BBB) disruption and macrophage activation
same,"staining for CD45, CD4, and CD11b",cervical spinal cord; day 40,minimal staining
B1,body temperature,[5],No decrease in body temperature
B2,body temperature,[5],decrease in temperature
